Structures are written as SMILES.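 Cultured in 96-well plates, cells were exposed to test compound for 48 hours across five concentrations. GI50 marks 50% less growth. TGI: total growth inhibition.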 Where only a bound is given, the exact number is not on record here.

We go through 18 compounds from PubChem BioAssay (NCI).

Some test systems named below: A498 renal; HT29 colon; MDA-MB-231 breast; DU-145 prostate; UACC-257 melanoma; UO-31 renal; NCI-H226 lung; M14 melanoma; MDA-MB-435.
What all share (experiment): NCI-60 cell line screen, 48 h

Turning to `O=C(Nc1cc(-c2ccccc2)[nH]n1)c1ccc(Cl)cc1`, the GI50 is 1.27 µM in the assay with A498 renal; 6.67 µM in the assay with HT29 colon; 30.4 µM with MDA-MB-231 breast; 6.96 µM in the assay on DU-145 prostate; greater than 100 µM in the assay on UACC-257 melanoma; 7.32 µM in the assay with UO-31 renal. Moreover, the GI50 is 56.7 µM in the assay with NCI-H226 lung and 8.66 µM in the assay on M14 melanoma. Also, the TGI with A498 renal, with HT29 colon, in the assay on MDA-MB-231 breast, in the assay on DU-145 prostate, in the assay with UACC-257 melanoma and in the assay with UO-31 renal was greater than 100 µM throughout. Besides, the TGI with NCI-H226 lung and in the assay with M14 melanoma was greater than 100 µM throughout.
With `CC1CCCC(C(=O)/C(=C/c2cccc(Cl)c2)C(=O)C(=O)O)C1` (stereo unspecified), the TGI in the assay on A498 renal was greater than 100 µM; with HT29 colon, 38.1 µM; in the assay on UACC-257 melanoma, greater than 100 µM; in the assay on UO-31 renal, greater than 100 µM; with NCI-H226 lung, greater than 100 µM; in the assay with M14 melanoma, 68.5 µM.
As for `COc1ccc(C(=O)C(C(=O)CCC(=O)Nc2cccc(C(F)(F)F)c2)c2ccccc2)cc1` (stereo unspecified), the TGI in the assay with A498 renal, in the assay with HT29 colon, with UACC-257 melanoma, with UO-31 renal, with NCI-H226 lung and in the assay on M14 melanoma was greater than 100 µM each time.
On to `CC(=O)c1c(C)n([O-])c2cc(C)c(C)cc2[n+]1=O`, for which the TGI with A498 renal, in the assay on HT29 colon, with UACC-257 melanoma, in the assay with UO-31 renal, with NCI-H226 lung and in the assay with M14 melanoma was greater than 100 µM in each case.
With `Clc1ccc(CNc2nc3ccccc3nc2-c2cccs2)c(Cl)c1`, the TGI in the assay on HT29 colon, in the assay with UACC-257 melanoma, in the assay with UO-31 renal and in the assay with NCI-H226 lung was greater than 100 µM each time.
Consider `Oc1c2c(c(O)c3ccccc13)=N[C@@H](c1ccccc1)[C@H](c1ccccc1)N=2`, for which the TGI in the assay with A498 renal, in the assay with HT29 colon, in the assay with UACC-257 melanoma, with UO-31 renal, in the assay on NCI-H226 lung and in the assay on M14 melanoma was greater than 100 µM in each case.
Turning to `CN1CCN(C)C1c1cccc(C2N(C)CCN2C)c1`, the TGI in the assay on A498 renal, with HT29 colon, in the assay with UO-31 renal, with NCI-H226 lung and in the assay on M14 melanoma was greater than 100 µM in each case.
Take `CC/C=C\C/C=C\C1CC(=O)NCCCNCCCCN1` (stereo unspecified): the TGI in the assay with HT29 colon, with UACC-257 melanoma, in the assay with UO-31 renal, in the assay with NCI-H226 lung and in the assay on M14 melanoma was greater than 100 µM throughout.
In the case of `C=C(COC(C)=O)CC(/C=C(\C)CCC=C(C)C)OC(C)=O` (stereo unspecified), the TGI in the assay on A498 renal, in the assay on HT29 colon, with UO-31 renal, in the assay with NCI-H226 lung and in the assay on M14 melanoma was greater than 100 µM throughout.
In the case of `O=c1c2ccccc2c2c3c1cccc3c1cccc3c(=O)c4ccccc4c2c31`, the TGI in the assay on A498 renal, in the assay with HT29 colon, in the assay with UACC-257 melanoma, in the assay with UO-31 renal, with NCI-H226 lung and with M14 melanoma was greater than 100 µM each time.
In the case of `CC1=Nc2c(ccc3c2C(=O)c2ccccc2C3=O)NC(c2ccncc2)C1` (stereo unspecified), the TGI with A498 renal, in the assay on HT29 colon, with UACC-257 melanoma, in the assay on UO-31 renal, in the assay on NCI-H226 lung and in the assay on M14 melanoma was greater than 100 µM throughout. The GI50 with HT29 colon, with UACC-257 melanoma, with NCI-H226 lung and in the assay on M14 melanoma was greater than 100 µM throughout.
Turning to `CCCS(=O)(=O)c1nc(NC2CC2)cc(-c2ccc3c(ccn3C3CC(C)(C)NC(C)(C)C3)c2)n1`, the GI50 in the assay with A498 renal is 1.81 µM; in the assay with HT29 colon, 1.81 µM; in the assay on DU-145 prostate, 1.71 µM; in the assay on UO-31 renal it was 1.6 µM; in the assay with NCI-H226 lung it was 1.74 µM; in the assay on MDA-MB-435, 1.47 µM. Also, the GI50 in the assay on M14 melanoma is 1.74 µM. Further, the TGI in the assay with A498 renal was 3.37 µM; in the assay on HT29 colon it was 3.38 µM; with DU-145 prostate, 3.19 µM; in the assay on UO-31 renal, 3.16 µM; with NCI-H226 lung, 3.71 µM; with MDA-MB-435, 2.95 µM. In addition, in the assay with M14 melanoma, the TGI amounted to 3.24 µM.
For the compound `O=C1N[C@@H](O)[C@@H]2ON=C(c3ccccc3)[C@H]12`, the TGI in the assay with A498 renal, with HT29 colon, with UACC-257 melanoma, with UO-31 renal, with NCI-H226 lung and in the assay with M14 melanoma was greater than 100 µM in each case.
For the compound `CC(=O)OCCOCBr`, the TGI in the assay with A498 renal, in the assay with HT29 colon, in the assay with UACC-257 melanoma, with UO-31 renal, with NCI-H226 lung and in the assay with M14 melanoma was greater than 100 µM each time.
Regarding `NC1=NC(=O)C(CC(=O)Nc2ccc([N+](=O)[O-])cc2[N+](=O)[O-])S1` (stereo unspecified), the TGI in the assay on HT29 colon, in the assay with UACC-257 melanoma, in the assay with UO-31 renal, in the assay on NCI-H226 lung and in the assay with M14 melanoma was greater than 100 µM throughout.
Consider `CC(C)(C)C1(O)Cc2ccccc2C(=O)O1` (stereo unspecified), for which the TGI in the assay with A498 renal, in the assay on HT29 colon, in the assay with UACC-257 melanoma, with UO-31 renal, with NCI-H226 lung and in the assay on M14 melanoma was greater than 100 µM throughout.
For `COc1ccc(C2=NC(C)(C)CO2)cc1`, the TGI with A498 renal, in the assay on HT29 colon and with UACC-257 melanoma was greater than 100 µM in each case.
As for `COc1ccc(C2C(N)=NCC2c2ccccn2)cc1` (stereo unspecified), the TGI in the assay on A498 renal, with HT29 colon, in the assay with UACC-257 melanoma, with UO-31 renal, with NCI-H226 lung and in the assay on M14 melanoma was greater than 100 µM throughout.
